From paper PMC7737769, “Pharmacological inhibition of syntenin PDZ2 domain impairs breast cancer cell activities and exosome loading with syndecan and EpCAM cargo” (Journal of Extracellular Vesicles, 2020) come the findings set out here.

Usually inhibition stands for the percentage by which the read-out fell short of the control.

Test [1] concerns T1, Erbin‐P0071 complex.
T1 construct: human Erbin PDZ domain; made in house; host or cells: E. coli BL21 (DE3)
The experiment in a line: HTRF assay, Erbin-P0071 interaction. Type of test: biochemical, human. The following applies: 400µM compound; Figure 1c. The method, then: (§1) HTRF assays were performed in white 96Well Small VolumeHiBase Polystyrene Microplates (Greiner) with a total working volume of […], as described previously (Milhas et al., 2016). Briefly, compounds were firstly dispensed into the wells at 400 µM for the primary screen or with serial DMSO dilutions for IC50 measurement assays. Primary screening assays have been performed in monoplicate while IC50 measurements were performed in triplicates. All HTRF reagents were purchased from CisBio Bioassays and reconstituted according to the supplier protocols. The plates were spun for 3 min at 500 × g and then incubated at 4°C for 16 h. The HTRF signals were recorded on a POLAR star Omega plate reader (BMG Labtech) with an excitation filter at 337 nm and fluorescence wavelength measurement at 620 and 665 nm, an integration delay of 60 µs and an integration time of 400 µs. Results were analysed with a two‐wavelength signal ratio: [intensity (665 nm)/intensity (620 nm)] × 10^4. Percentage of inhibition was calculated using the following equation: % inhibition = [(compound signal)–(min signal)]/[(max signal)–(min signal)] × 100, where ‘max signal’ is the signal ratio with the compound vehicle alone (DMSO) and ‘min signal’ the signal ratio without protein B. For IC50 measurements, values were normalized and fitted with Prism (GraphPad software) using the following equation: Y = 100/(1+((X/ IC50)ˆHill slope)).
(§2) The search strategy for PDZ2 syntenin inhibitors was based on the PDZ targeted library developed from Enamine compound collection. The PDZ targeted library was developed to cover virtually all PDZ domains. Consequently, to create the syntenin PDZ2 focused library we used two independent paths: docking of the PDZ targeted library against structures of syntenin PDZ2 available in Protein Data Bank and a random selection from the PDZ targeted library. The docking has produced 21 virtual hits, which were added to 118 randomly selected compounds (10% of the pan PDZ library). The resultant set of 139 compounds, syntenin PDZ library was subjected to experimental validation. The primary screen was performed at 400µM using a previously validated Homogeneous Time Resolved Fluorescence (HTRF) assay (Milhas et al., 2016). HTRF is based on Fluorescence Resonance Energy Transfer (FRET) between two fluorescent reagents. In the present case, Anti‐GST‐Terbium antibody and streptavidin‐bound Dynamic2 were used as donor and acceptor respectively. Interactions between GST PDZ‐fusion proteins and biotinylated peptides containing PDZ binding motifs were challenged with the potential inhibitors. In parallel, control experiments were performed with a biotinylated‐GST to verify that compounds were not interfering with the FRET signal in a non‐specific manner. To identify inhibitors of syntenin PDZ interactions, we tested for the effect of the 139 compounds on syntenin‐SDC2 and syntenin‐Frizzled7 complexes (Figure 1a; Table S1). When the HTRF signal dropped below 0.9, inhibition was considered as effective. […] Noteworthy, these compounds had no effect on other PDZ complexes like GRASP55‐JAM‐B or GRASP55‐JAM‐C and Erbin‐Erbb2 or Erbin‐P0071 (Figure 1c).
A general note: In TR-FRET formats the signal depends on donor and acceptor labels being close together.

Test [2] deals with T2, GRASP55‐JAM‐B complex.
T2 construct: Human GRASP55 tandem PDZ; made in house; host or cells: E. coli BL21 (DE3)
Nature of the test: HTRF assay, GRASP55-JAM-B interaction. Type of test: biochemical, human. The following applies: 400µM compound; Figure 1c. The method, then:
as §1, §2

The test system of test [3] is T3, GRASP55‐JAM‐C complex.
T3 construct: Human GRASP55 tandem PDZ; made in house; host or cells: E. coli BL21 (DE3)
Nature of the test: HTRF assay, GRASP55-JAM-C interaction. Type of test: biochemical, human. The following applies: 400µM compound; Figure 1c. The method, then: as §1, §2

Test [4] concerns the target T4, syntenin‐SDC2 complex (GST-SyntFL / SDC2 peptide) (Homo sapiens, UniProt O00560).
T4 construct: residues 1–298 or syntenin full‐length (FL) for HTRF assays; made in house; host or cells: E. coli ER2566
T4 sequence (O00560 1-298): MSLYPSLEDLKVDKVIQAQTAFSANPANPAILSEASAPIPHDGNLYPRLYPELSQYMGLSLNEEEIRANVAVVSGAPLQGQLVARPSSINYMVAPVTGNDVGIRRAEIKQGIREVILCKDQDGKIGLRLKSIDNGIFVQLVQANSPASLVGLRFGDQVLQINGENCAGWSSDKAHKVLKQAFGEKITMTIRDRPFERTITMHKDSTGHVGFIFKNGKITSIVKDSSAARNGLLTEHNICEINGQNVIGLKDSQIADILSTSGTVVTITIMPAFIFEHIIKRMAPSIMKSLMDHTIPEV
Nature of the test: HTRF assay, syntenin-SDC2 interaction. Format: biochemical. The following applies: for GST SyntFL Syndecan 2 (signal ratio): 400µM compound, Figure 1c; for inhibition of syntenin PDZ interactions: HTRF primary screen, 400µM, syntenin-SDC2 and syntenin-Frizzled7; for HTRF ASSAY GST-SyntFL SDC2 (HTRF signal ratio): primary screen, 400 µM compound, signal below 0.9 considered effective inhibition, Table S1.

Test [5] relates to T5, syntenin‐Frizzled7 complex (GST-SyntFL / FZD7 peptide).
T5 construct: residues 1–298 or syntenin full‐length (FL) for HTRF assays; made in house; host or cells: E. coli ER2566
Nature of the test: HTRF assay, syntenin-Frizzled 7 interaction. Type of test: biochemical, human. The following applies: for GST SyntFL Frizzled 7 (signal ratio): 400µM compound, Figure 1c; for HTRF ASSAY GST-SyntFL FZD7 (HTRF signal ratio): primary screen, 400 µM compound, signal below 0.9 considered effective inhibition, Table S1. The method, then:
as §1, §2

For test [6], the system named is T6, Erbin‐Erbb2 complex.
T6 construct: human Erbin PDZ domain; made in house; host or cells: E. coli BL21 (DE3)
Nature of the test: HTRF assay, Erbin-ERBB2 interaction. Type of test: biochemical, human. The following applies: 400µM compound; Figure 1c. The method, then:
as §1, §2

The test system of test [7] is biotinylated‐GST. The experiment in a line: HTRF control with biotinylated-GST (non-specific interference with FRET signal). The following applies: for GST-biot (signal ratio): 400µM compound, Figure 1c; for effect on control (biotinylated‐GST) FRET signals: HTRF primary screen, 400µM; for HTRF ASSAY GST-biot (HTRF signal ratio, control): primary screen, 400 µM compound, Table S1. The method, then:
as §1, §2

For the compound `CC(C)[C@H](NS(=O)(=O)c1ccc2ccccc2c1)C(=O)O` [Compound C38], the “GST-Erbin P0071 (signal ratio)” value in test [1] came to 1. Further, the “GST-GRASP JAM-B (signal ratio)” value in test [2] is on record as 1. The “GST-GRASP JAM-C (signal ratio)” value in test [3] turned out to be 1. Also, in test [4], the “GST SyntFL Syndecan 2 (signal ratio)” value was found to be 0.58, the “inhibition of syntenin PDZ interactions” value is listed as “inhibit” and the “HTRF ASSAY GST-SyntFL SDC2 (HTRF signal ratio)” value was found to be 0.59. Also, in test [4] (HTRF, 400 µM, syntenin-SDC2 and syntenin-Frizzled 7 complexes, read-out: extent of inhibition of Syntenin‐PDZ complexes), the inhibition at 400 µM is 40%. In test [5], the “GST SyntFL Frizzled 7 (signal ratio)” value turned out to be 0.55 and the “HTRF ASSAY GST-SyntFL FZD7 (HTRF signal ratio)” value is 0.56. In addition, the “GST-Erbin ERBB2 (signal ratio)” value in test [6] amounted to 0.92. In test [7], the “GST-biot (signal ratio)” value is reported as 0.96; the “effect on control (biotinylated‐GST) FRET signals” value (“effect on control” for short) is “no significant effect”; the “HTRF ASSAY GST-biot (HTRF signal ratio, control)” value was determined as 0.92.

As for `CC(C)[C@H](NC(=O)COc1ccc2ccccc2c1)C(=O)O` [Compound C4], the “GST-Erbin P0071 (signal ratio)” value in test [1] is reported as 0.89. Besides, the “GST-GRASP JAM-B (signal ratio)” value in test [2] came out at 0.97. Moreover, the “GST-GRASP JAM-C (signal ratio)” value in test [3] stood at 0.89. Also, in test [4], the “GST SyntFL Syndecan 2 (signal ratio)” value was 0.78, the “inhibition of syntenin PDZ interactions” value is listed as “inhibit” and the “HTRF ASSAY GST-SyntFL SDC2 (HTRF signal ratio)” value is recorded as 0.78. For the same compound, in test [5], the “GST SyntFL Frizzled 7 (signal ratio)” value stood at 0.78 and the “HTRF ASSAY GST-SyntFL FZD7 (HTRF signal ratio)” value is given as 0.77. Moreover, the “GST-Erbin ERBB2 (signal ratio)” value in test [6] came to 1.02. For the same compound, in test [7], the “GST-biot (signal ratio)” value was found to be 0.97; the “effect on control” value is given as “no significant effect”; the “HTRF ASSAY GST-biot (HTRF signal ratio, control)” value came out at 1.02.

With `CC(C)[C@H](NS(=O)(=O)c1ccc2c(c1)OCCCO2)C(=O)O` [Compound C37], in test [1], the “GST-Erbin P0071 (signal ratio)” value was 0.95. Further, the “GST-GRASP JAM-B (signal ratio)” value in test [2] is listed as 1. The “GST-GRASP JAM-C (signal ratio)” value in test [3] is listed as 1. In test [4], the “GST SyntFL Syndecan 2 (signal ratio)” value is given as 0.74, the “inhibition of syntenin PDZ interactions” value is listed as “inhibit” and the “HTRF ASSAY GST-SyntFL SDC2 (HTRF signal ratio)” value was 0.73. For the same compound, in test [5], the “GST SyntFL Frizzled 7 (signal ratio)” value is on record as 0.7 and the “HTRF ASSAY GST-SyntFL FZD7 (HTRF signal ratio)” value was determined as 0.68. Also, the “GST-Erbin ERBB2 (signal ratio)” value in test [6] is listed as 1.04. Further, in test [7], the “GST-biot (signal ratio)” value is listed as 0.97; the “effect on control” value was “no significant effect”; the “HTRF ASSAY GST-biot (HTRF signal ratio, control)” value turned out to be 1.04.

Turning to `Cc1ccc(S(=O)(=O)N[C@H](C(=O)O)C(C)C)cc1C` [Compound C47], in test [1], the “GST-Erbin P0071 (signal ratio)” value is reported as 1. Moreover, in test [2], the “GST-GRASP JAM-B (signal ratio)” value turned out to be 1.1. Also, the “GST-GRASP JAM-C (signal ratio)” value in test [3] is recorded as 1. In addition, in test [4], the “GST SyntFL Syndecan 2 (signal ratio)” value came out at 0.78, the “inhibition of syntenin PDZ interactions” value is listed as “inhibit” and the “HTRF ASSAY GST-SyntFL SDC2 (HTRF signal ratio)” value turned out to be 0.74. In test [5], the “GST SyntFL Frizzled 7 (signal ratio)” value turned out to be 0.78 and the “HTRF ASSAY GST-SyntFL FZD7 (HTRF signal ratio)” value was 0.71. Moreover, in test [6], the “GST-Erbin ERBB2 (signal ratio)” value is 0.96. For the same compound, in test [7], the “GST-biot (signal ratio)” value is recorded as 0.99; the “effect on control” value was “no significant effect”; the “HTRF ASSAY GST-biot (HTRF signal ratio, control)” value is 0.96.
